For one data set, the system named is HCT-15. In words: Cytotoxicity against human HCT-15 cells assessed as inhibition of cell growth incubated for 24 hrs by sulforhodamine B assay. The data set is classed as functional, cell-based. The following applies: HCT-15, 24 h.
For another data set, the system named is Bel-7402. Description: Cytotoxicity against human Bel-7402 cells assessed as inhibition of cell growth incubated for 48 hrs by MTT assay. The following applies: Bel-7402, 48 h. Type of data set: functional, cell-based. For orientation: Tetrazolium dyes change colour on reduction, which living cells bring about.
Data set [1] can be described thus: Cytotoxicity against human QSG7701 cells assessed as inhibition of cell growth incubated for 48 hrs by MTT assay. Type of data set: toxicity, cell-based.
The test system of another data set is SMMC-7721. Description: Antiproliferative activity against human SMMC-7721 cells assessed as inhibition of cell proliferation incubated for 48 hrs by MTT assay. Type of data set: functional, cell-based. The following applies: SMMC-7721, 48 h.
Data set [2] has as its system MCF7. Description: Antiproliferative activity against human MCF7 cells assessed as inhibition of cell proliferation incubated for 48 hrs by MTT assay. The data set is classed as functional, cell-based. The following applies: MCF7, 48 h.
A further data set relates to HeLa. In words: Antiproliferative activity against human HeLa cells assessed as inhibition of cell proliferation incubated for 48 hrs by MTT assay. The data set is classed as functional, cell-based.
For a further data set, the system named is BGC-823. In words: Antiproliferative activity against human BGC-823 cells assessed as inhibition of cell proliferation incubated for 24 hrs by MTT assay. Type of data set: functional, cell-based. The following applies: BGC-823, 24 h.
A further data set concerns L02. Description: Antiproliferative activity against human HL7702 cells assessed as inhibition of cell proliferation incubated for 24 hrs by MTT assay. The data set is classed as functional, cell-based. The following applies: L02, 24 h.
Data set [3] concerns MCF7. Description: Antiproliferative activity against human MCF7 cells assessed as inhibition of cell proliferation incubated for 24 hrs by MTT assay. The following applies: MCF7, 24 h. Type of data set: functional, cell-based.
In another data set the test system is Staphylococcus aureus. Description: Antibacterial activity against Staphylococcus aureus MTCC 96 assessed as zone of inhibition at 50 ug/ml by well diffusion assay. The data set is classed as functional. The following applies: read-out: IZ. (In agar diffusion tests the substance spreads into inoculated agar from a disc or well.)
Data set [4] has as its system Staphylococcus epidermidis. In words: Antibacterial activity against Staphylococcus epidermidis MTCC 435 assessed as zone of inhibition at 50 ug/ml by well diffusion assay. The data set is classed as functional. The following applies: read-out: IZ.
A further data set relates to Pseudomonas aeruginosa. In words: Antibacterial activity against Pseudomonas aeruginosa MTCC 741 assessed as zone of inhibition at 50 ug/ml by well diffusion assay. The following applies: read-out: IZ. Type of data set: functional.
A further data set relates to Escherichia coli. In words: Antibacterial activity against Escherichia coli MTCC 443 assessed as zone of inhibition at 50 ug/ml by well diffusion assay. The data set is classed as functional. The following applies: read-out: IZ.
Another data set has as its system Aspergillus niger. Description: Antifungal activity against Aspergillus niger MTCC 282 assessed as zone of inhibition at 100 ug/ml by well diffusion assay. The following applies: read-out: IZ. The data set is classed as functional.
A further data set relates to Candida albicans. Description: Antifungal activity against Candida albicans MTCC 227 assessed as zone of inhibition at 100 ug/ml by well diffusion assay. The data set is classed as functional. The following applies: read-out: IZ.
A further data set concerns Rhizopus arrhizus. Description: Antifungal activity against Rhizopus oryzae MTCC 262 assessed as zone of inhibition at 100 ug/ml by well diffusion assay. The following applies: read-out: IZ. The data set is classed as functional.
Another data set concerns Saccharomyces cerevisiae. Description: Antifungal activity against Saccharomyces cerevisiae MTCC 36 assessed as zone of inhibition at 100 ug/ml by well diffusion assay. Type of data set: functional. The following applies: read-out: IZ.

37 compounds from ChEMBL document CHEMBL5244223, “l,8-Naphthalimide based DNA intercalators and anticancer agents. A systematic review from 2007 to 2017” (Eur J Med Chem, 2018) can be followed below.

Broadly, the IC50 is the concentration at which inhibition is half-maximal.

Consider `O=C1c2cccc3cccc(c23)C(=O)N1CCCn1cc(-c2ccccc2)nn1`, for which the IC50 in the data set on HCT-15 is 2440 nM.

In the case of `NCCCNCCCCNCCCN1C(=O)c2cccc3c(Cl)ccc(c23)C1=O`, the IC50 in the data set with Bel-7402 was 1060 nM. Also, the IC50 at 48 h in data set [1] is > 50000 nM.

As for `CN(C)CCN1C(=O)c2cccc3cc(-n4cc(-c5ccccc5)nn4)cc(c23)C1=O`, the 50% inhibitory concentration (IC50) with SMMC-7721, in the data set on MCF7 [2] and with HeLa was 300 nM throughout.

As to `NCCCNCCCCNCCCCN1C(=O)c2cccc3cccc(c23)C1=O`, in the data set on Bel-7402, the IC50 was found to be 1060 nM. The concentration for half-maximal inhibition (IC50) at 48 h in data set [1] is > 50000 nM.

On to `NCCCCNCCCCNCCCCN1C(=O)c2cccc3cc(N)cc(c23)C1=O`, for which the IC50 in the data set on Bel-7402 was determined as 1060 nM. The IC50 at 48 h in data set [1] was > 50000 nM.

As for `CCNN1C(=O)c2cccc3c2c(cc2[nH]c(-c4c[nH]c5ccccc45)nc23)C1=O`, the 50% inhibitory concentration (IC50) in the data set with BGC-823, with L02 and in the data set on MCF7 [3] was 700 nM each time.

With `O=C1c2cccc3cc(-n4ccnn4)cc(c23)C(=O)N1CCO`, the half-maximal inhibitory concentration (IC50) with SMMC-7721, in the data set on MCF7 [2] and with HeLa was 300 nM throughout.

With `NCCCNCCCCNCCCN1C(=O)c2cccc3cc([N+](=O)[O-])cc(c23)C1=O`, in the data set with Bel-7402, the half-inhibitory concentration (IC50) amounted to 1060 nM. In addition, the concentration for half-maximal inhibition (IC50) at 48 h in data set [1] was > 50000 nM.

As for `NCCCNCCCCNCCCN1C(=O)c2cccc3cc(N)cc(c23)C1=O`, in the data set on Bel-7402, the IC50 came out at 1060 nM. The IC50 at 48 h in data set [1] was > 50000 nM.

In the case of `O=C1c2cccc3cccc(c23)C(=O)N1CCn1cc(-c2ccccc2)nn1`, in the data set on HCT-15, the IC50 came out at 2440 nM.

Take `NCCCNCCCNCCCN1C(=O)c2cccc3cc(N)cc(c23)C1=O`: the IC50 in the data set with Bel-7402 was determined as 1060 nM. In data set [1], the IC50 at 48 h is > 50000 nM.

For the compound `CCN(CC)CCN1C(=O)c2cccc3cc(-n4cc(-c5ccccc5)nn4)cc(c23)C1=O`, the IC50 in the data set on SMMC-7721, in the data set with MCF7 [2] and in the data set on HeLa was 300 nM throughout.

On to `NCCCCNCCCCNCCCCN1C(=O)c2cccc3cccc(c23)C1=O`, for which the IC50 with Bel-7402 is 1060 nM. The IC50 at 48 h in data set [1] was > 50000 nM.

With `O=C1c2cccc3cccc(c23)C(=O)N1CCCNCc1ccco1`, the half-inhibitory concentration (IC50) in the data set with HCT-15 was 2440 nM.

Take `O=C1c2cccc3c2c(cc2[nH]c(-c4c[nH]c5ccccc45)nc23)C(=O)N1NCc1ccccc1`: the IC50 in the data set on BGC-823, in the data set on L02 and in the data set with MCF7 [3] was 700 nM throughout.

In the case of `NCCCCNCCCCNCCCCN1C(=O)c2cccc3c(Cl)ccc(c23)C1=O`, in the data set on Bel-7402, the IC50 was determined as 1060 nM. In addition, the IC50 at 48 h in data set [1] is > 50000 nM.

As for `O=C1c2cccc3cc(-n4cc(-c5ccccc5)nn4)cc(c23)C(=O)N1CCO`, the 50% inhibitory concentration (IC50) in the data set with SMMC-7721, in the data set with MCF7 [2] and in the data set on HeLa was 300 nM each time.

As for `CCCCN1C(=O)c2cccc3cc(-n4cc(-c5ccccc5)nn4)cc(c23)C1=O`, the half-inhibitory concentration (IC50) in the data set with SMMC-7721, in the data set on MCF7 [2] and in the data set with HeLa was 300 nM throughout.

Consider `CN(C)CCCN1C(=O)c2cccc3c2c(cc2[nH]c(-c4c[nH]c5ccccc45)nc23)C1=O`, for which the IC50 in the data set with BGC-823, in the data set with L02 and with MCF7 [3] was 700 nM each time.

Turning to `CCCCN1C(=O)c2cccc3cc(-n4ccnn4)cc(c23)C1=O`, the half-inhibitory concentration (IC50) in the data set with SMMC-7721, with MCF7 [2] and with HeLa was 300 nM each time.

As for `NCCCNCCCNCCCN1C(=O)c2cccc3c(Cl)ccc(c23)C1=O`, the IC50 with Bel-7402 stood at 1060 nM. Besides, in data set [1], the IC50 at 48 h is > 50000 nM.

Regarding `O=C1c2cccc3cccc(c23)C(=O)N1CCCNCc1cccs1`, the IC50 with HCT-15 worked out at 2440 nM.

Regarding `O=C1c2cccc3cc(-n4ccnn4)cc(c23)C(=O)N1CCN1CCNCC1`, the half-inhibitory concentration (IC50) with SMMC-7721, in the data set on MCF7 [2] and with HeLa was 300 nM throughout.

In the case of `NCCN1C(=O)c2cccc3cccc(c23)C1=O`, the IC50 with HCT-15 was determined as 2440 nM.

Turning to `NCCCN1C(=O)c2cccc3cccc(c23)C1=O` [NAPHTHALIMIDOPROPYLAMINE], the IC50 in the data set on HCT-15 stood at 2440 nM.

Turning to `CCC1=C(C(=O)OC(F)(F)F)C(CN2C(=O)c3cccc4cccc(c34)C2=O)NC(=S)N1` (stereo not drawn), the zone of inhibition at 50 µg/mL in the data set with Staphylococcus aureus was determined as 15 mm; in [4] it was 15 mm; in the data set on Pseudomonas aeruginosa, 12 mm; in the data set with Escherichia coli, 12 mm. For the same compound, the zone of inhibition at 100 µg/mL with Aspergillus niger, in the data set with Candida albicans, with Rhizopus arrhizus and in the data set with Saccharomyces cerevisiae was 12 mm in each case.

For the compound `NCCCCNCCCCNCCCN1C(=O)c2cccc3cccc(c23)C1=O`, the IC50 in the data set with Bel-7402 came to 1060 nM. Besides, in data set [1], the IC50 at 48 h is > 50000 nM.

On to `O=C1c2cccc3cccc(c23)C(=O)N1CCCCn1cc(-c2ccccc2)nn1`, for which, in the data set on HCT-15, the IC50 is 2440 nM.

On to `NCCCCNCCCCNCCCCN1C(=O)c2cccc3cc([N+](=O)[O-])cc(c23)C1=O`, for which the half-inhibitory concentration (IC50) in the data set on Bel-7402 amounted to 1060 nM. The IC50 at 48 h in data set [1] is > 50000 nM.

With `NCCCCN1C(=O)c2cccc3cccc(c23)C1=O`, the IC50 with HCT-15 turned out to be 2440 nM.

With `O=C1c2cccc3cc(-n4cc(-c5ccccc5)nn4)cc(c23)C(=O)N1CCN1CCNCC1`, the IC50 in the data set on SMMC-7721, in the data set on MCF7 [2] and with HeLa was 300 nM throughout.

Take `COC(=O)C1=C(C)NC(=S)NC1CN1C(=O)c2cccc3cccc(c23)C1=O` (stereo not drawn): the zone of inhibition at 50 µg/mL turned out to be 15 mm in the data set with Staphylococcus aureus, 15 mm in data set [4], 12 mm in the data set with Pseudomonas aeruginosa and 12 mm in the data set with Escherichia coli. The zone of inhibition at 100 µg/mL in the data set on Aspergillus niger, with Candida albicans, in the data set on Rhizopus arrhizus and in the data set on Saccharomyces cerevisiae was 12 mm each time.

With `CCN(CC)CCN1C(=O)c2cccc3cc(-n4ccnn4)cc(c23)C1=O`, the 50% inhibitory concentration (IC50) in the data set with SMMC-7721, with MCF7 [2] and with HeLa was 300 nM throughout.

For `CCC1=C(C(=O)OC(F)(F)F)C(CN2C(=O)c3cccc4cccc(c34)C2=O)NC(=O)N1` (stereo not drawn), the zone of inhibition at 50 µg/mL in the data set on Staphylococcus aureus is 15 mm; in data set [4] it was 15 mm; in the data set on Pseudomonas aeruginosa, 12 mm; in the data set with Escherichia coli, 12 mm. Besides, the zone of inhibition at 100 µg/mL in the data set on Aspergillus niger, in the data set with Candida albicans, with Rhizopus arrhizus and with Saccharomyces cerevisiae was 12 mm in each case.

Consider `NCCCNCCCCNCCCN1C(=O)c2cccc3c(Br)ccc(c23)C1=O`, for which the 50% inhibitory concentration (IC50) in the data set on Bel-7402 was found to be 1060 nM. Also, the 50% inhibitory concentration (IC50) at 48 h in data set [1] is > 50000 nM.

For `CCC1=C(C(=O)OC)C(CN2C(=O)c3cccc4cccc(c34)C2=O)NC(=O)N1` (stereo not drawn), the zone of inhibition at 50 µg/mL with Staphylococcus aureus came to 15 mm; in [4] it was 15 mm; with Pseudomonas aeruginosa, 12 mm; with Escherichia coli, 12 mm. Further, the zone of inhibition at 100 µg/mL in the data set on Aspergillus niger, in the data set on Candida albicans, in the data set on Rhizopus arrhizus and in the data set on Saccharomyces cerevisiae was 12 mm each time.

Regarding `CCC1=C(C(=O)Oc2ccccc2)C(CN2C(=O)c3cccc4cccc(c34)C2=O)NC(=S)N1` (stereo not drawn), the zone of inhibition at 50 µg/mL in the data set with Staphylococcus aureus amounted to 15 mm; in [4], 15 mm; in the data set on Pseudomonas aeruginosa, 12 mm; in the data set with Escherichia coli it was 12 mm. Further, the zone of inhibition at 100 µg/mL with Aspergillus niger, in the data set with Candida albicans, with Rhizopus arrhizus and with Saccharomyces cerevisiae was 12 mm each time.
